According to patent publication US4255183A, “Substituted phenyl urea and herbicides for use in paddy field” (Hokko Chemical Industry Co., Ltd., priority 1977, dated 1981):
Like-named read-outs stand apart in the source and are kept apart here.

Columns and labels:
paddy rice [1] = assay: Test Example 1: pot test on selectivity, inhibition of paddy rice; format: in vivo; conditions: for Inhibition (%) by treatment at 1-leaf stage, paddy rice / Inhibition (%) by treatment at 5-leaf stage, paddy rice / inhibition at 750 g/ha / inhibition at 1500 g/ha / inhibition at 3000 g/ha / inhibition at 6000 g/ha / inhibition at 9000 g/ha: dry weight 30 days after treatment; for inhibition at 750 g/ha / inhibition at 1500 g/ha / inhibition at 3000 g/ha / inhibition at 6000 g/ha / inhibition at 9000 g/ha: Oryza sativa, 720 h
Procedure, shortened: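 Alluvial paddy soil in pots sown with Echinochloa crus-galli var. oryzicola (50 seeds) and paddy rice (30 seeds), submerged about 1 cm. Dry weights taken 30 days after chemical treatment; inhibition rate calculated relative to untreated area.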

paddy rice [2] = assay: whole plant or invertebrate; format: in vivo, paddy rice (Asahi species); conditions: Oryza sativa, 720 h, granule, 30 days; for inhibition at 1000 g/ha: 100 g/10 are; for inhibition at 3000 g/ha: 300 g/10 are; for inhibition at 9000 g/ha: 900 g/10 are
Procedure, shortened: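 Barnyardgrass seeded in flooded alluvial paddy soil (~3 cm water) in concrete pots, with 2.5-leaf Asahi rice transplanted before weed emergence. Granules applied at weed 1-leaf or 5-leaf stage. Dry weights measured 30 days after treatment; inhibition rate calculated versus untreated area.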

[3] = tested on: Echinochloa crus-galli var. oryzicola; assay: Test Example 3: field test in transplanted paddy field, Echinochloa crus-galli var. oryzicola; format: in vivo; conditions: Echinochloa crus-galli, 1440 h; 300 g/10 are, granule, applied at 4-leaf stage, examined 60 days after transplantation; read-out: Inhibition (%) of E. crus-galli var. oryzicola
Method: (§1) In a Wagner pot of 1/500 are, paddy field soil (alluvial soil) was placed and 50 seeds of Echinochloa crus-galli var. oryzicola and 30 seeds of paddy rice were seeded in the surface layer of said soil and the submerging depth was kept at about 1 cm. When Echinochloa crus-galli var. oryzicola reached at the one leaf stage and 5-leaf stage, the emulsion of a predetermined concentration, prepared according to Example 4 was added dropwise. After 30 days from the treatment with the chemical, dry weights of Echinochloa crus-galli var. oryzicola and paddy rice were measured and the inhibition rate was calculated with reference to untreated area. [formula]
(§2) In a 10 m^2 paddy field, young seedlings of paddy rice (Asahi species) at the 2,5-leaf stage were transplanted 30 days after the puddling the submerging at the depth of 3-5 cm. 25 Days after the transplantation, when Echinochloa crus-galli var. oryzicola reached 4-leaf stage, a predetermined dose of the granule prepared according to Example 1 was applied. Test results were examined 60 days after the transplantation of paddy rice in the similar manner as in Test Example 1.
(§3) Comparative chemicals used were all those commercially available and in the case of the comparative chemical 2, CNP was applied 3 days after the transplantation of paddy rice and after 25 days a mixture of Benthiocarb and Simetryne was applied.

paddy rice [4] = assay: Test Example 3: field test in transplanted paddy field, paddy rice; format: in vivo, paddy rice (Asahi species); conditions: Oryza sativa; 300 g/10 are, granule, applied 25 days after transplantation, examined 60 days after transplantation
Method: as §1, §2, §3

paddy rice [5] = assay: Test Example 4: field test in submerged directly seeded paddy field, paddy rice; format: in vivo, paddy rice (Asahi species); conditions: Oryza sativa, 504 h; 300 g/10 are, emulsion, 2- to 3-leaf stage, 21 days after application
Method: as §1
In a 10 m^2 paddy field, 30 g of Echinochloa crus-galli var. oryzicola seeds were seeded at the time of puddling and the depth of submerging was kept at 3-5 cm. 3 Days after the puddling, 50 g of paddy rice at the emergence stage (Asahi species) were seeded. When Echinochloa crus-galli var. oryzicola and paddy rice reached a 2- to 3-leaf stage, a predetermined dose of the emulsion prepared according to Example 4 was applied uniformly by means of a manual spraying machine. Test results were examined 21 days after the application of the chemicals in the similar manner as in Test Example 1.
The comparative chemical 1 used was that commercially available and the comparative chemical 2 used was prepared according to Example 4.

Bulrush = assay: Test Example 5: Wagner pot test, herbicidal effect on Bulrush; format: in vivo
Method: (§4) In a 1/7500 are Wagner pot, sieved paddy field soil (alluvial soil) was charged. Thereafter, in the center portion of the pot, 2 roots of paddy rice (Asahi species) at the 2- to 3-leaf stage were transplanted and 20 seeds of Bulrush per pot were seeded in the surface of the above soil. The pot was submerged at the depth of about 2 cm. The other Dopatrium junceum and umbrella plant were generated naturally. After seeding, when each of the weeds reached the same leaf age as defined in Table 5 given herein, a predetermined concentration of the emulsion prepared according to Example 4 was applied dropwise on the surface of the pot. The test was carried out by repeating the same test three times per area and the results were determined 20 days after the application of the chemicals with regard to the herbicidal effect and chemical injury on paddy rice on the basis of the evaluation index as shown below.
(§5) As the comparative chemicals Molinate, Benthiocarb and DCMU, those commercially available were used.
(§6) In the above table, the inhibition rate was calculated according to the method as described in Test Example 1.

Dopatrium junceum = assay: Test Example 5: Wagner pot test, herbicidal effect on Dopatrium junceum; format: in vivo
Method: as §4, §5, §6

Umbrella plant = assay: Test Example 5: Wagner pot test, herbicidal effect on umbrella plant; format: in vivo; conditions: 20 days after application
Method: as §4, §5, §6

Acute oral toxicity = conditions: in vivo, SD-strain rat
Method: Acute oral toxicity LD50 value of the compound of the invention measured on SD-strain rat is more than 2,000 mg/Kg for any of the trans-form, cis-form and a mixture thereof in equal amount and further acute fish toxicity TLm value (as defined by Official Standard issued from Ministry of Agriculture & Forestry) measured on young carp is more than 20 ppm for any of the above compounds.

[6] = rice at 3.5 leaves stage, read-out: Inhibition (%) by treatment at 1-leaf stage of E. crus-galli var. oryzicola, paddy rice
[7] = rice at 7 leaves stage, read-out: Inhibition (%) by treatment at 5-leaf stage of E. crus-galli var. oryzicola, paddy rice
[8] = 300 g/10a, leaf age 3, 20 days after application
[9] = 300 g/10a, leaf age 3-5, 20 days after application
[10] = 600 g/10a, leaf age 3, 20 days after application
[11] = 600 g/10a, leaf age 3-5, 20 days after application
[12] = 300 g/10a, leaf age 2, 20 days after application
[13] = 600 g/10a, leaf age 2, 20 days after application
[14] = 300 g/10a, leaf age 2 (first group of columns)
[15] = 300 g/10a, leaf age 2 (second group of columns)
[16] = 600 g/10a, leaf age 2 (first group of columns)
[17] = 600 g/10a, leaf age 2 (second group of columns)

Row | SMILES | inhibition at 1000 g/ha (paddy rice [2]; [6]) [%] | inhibition at 1000 g/ha (paddy rice [2]; [7]) [%] | inhibition at 3000 g/ha (paddy rice [2]; [6]) [%] | inhibition at 3000 g/ha (paddy rice [2]; [7]) [%] | inhibition at 9000 g/ha (paddy rice [2]; [6]) [%] | inhibition at 9000 g/ha (paddy rice [2]; [7]) [%] | inhibition at 3000 g/ha [3] [%] | inhibition at 3000 g/ha (paddy rice [4]) [%] | inhibition at 3000 g/ha (paddy rice [5]) [%] | Weed kill degree, Bulrush (Bulrush; [8]) | Weed kill degree, Bulrush (Bulrush; [9]) | Weed kill degree, Bulrush (Bulrush; [10]) | Weed kill degree, Bulrush (Bulrush; [11]) | Weed kill degree, Dopatrium junceum (Dopatrium junceum; [12]) | Weed kill degree, Dopatrium junceum (Dopatrium junceum; [8]) | Weed kill degree, Dopatrium junceum (Dopatrium junceum; [13]) | Weed kill degree, Dopatrium junceum (Dopatrium junceum; [10]) | Weed kill degree, Umbrella plant (Umbrella plant; [14]) | Weed kill degree, Umbrella plant (Umbrella plant; [15]) | Weed kill degree, Umbrella plant (Umbrella plant; [16]) | further results
1 | CC=CCOc1ccc(NC(=O)N(C)C)cc1 [Mixture of trans- and cis-forms 1:1] | 0 | 0 | 0 | 0 | 0 | 0 | 100 | 0 | 0 | 5 (100) | 5 (100) | 5 (100) | 5 (100) | 5 (100) | 5 (100) | 5 (100) | 5 (100) | 5 (100) | 5 (100) | 5 (100) | Inhibition (%) by treatment at 1-leaf stage, paddy rice (paddy rice [1]; 75 g/10 are, 1-leaf stage): 0%; Inhibition (%) by treatment at 5-leaf stage, paddy rice (paddy rice [1]; 75 g/10 are, 5-leaf stage): 0%; Inhibition (%) by treatment at 1-leaf stage, paddy rice (paddy rice [1]; 150 g/10 are, 1-leaf stage): 0%; Inhibition (%) by treatment at 5-leaf stage, paddy rice (paddy rice [1]; 150 g/10 are, 5-leaf stage): 0%; Inhibition (%) by treatment at 1-leaf stage, paddy rice (paddy rice [1]; 300 g/10 are, 1-leaf stage): 0%; Inhibition (%) by treatment at 5-leaf stage, paddy rice (paddy rice [1]; 300 g/10 are, 5-leaf stage): 0%; Inhibition (%) by treatment at 1-leaf stage, paddy rice (paddy rice [1]; 600 g/10 are, 1-leaf stage): 0%; Inhibition (%) by treatment at 5-leaf stage, paddy rice (paddy rice [1]; 600 g/10 are, 5-leaf stage): 0%; Inhibition (%) by treatment at 1-leaf stage, paddy rice (paddy rice [1]; 900 g/10 are, 1-leaf stage): 3%; Inhibition (%) by treatment at 5-leaf stage, paddy rice (paddy rice [1]; 900 g/10 are, 5-leaf stage): 0%; Weed kill degree, Umbrella plant (Umbrella plant; [17]): 5 (100); LD50 (Acute oral toxicity): > 2000 mg/kg
2 | C/C=C\COc1ccc(NC(=O)N(C)C)cc1 [cis-form, 3-(4-cis-crotyloxyphenyl)-1,1-dimethyl urea] | 0 | 0 | 0 | 0 | 0 | 0 | 100 | 0 | 0 | 5 (100) | 5 (100) | 5 (100) | 5 (100) | 5 (100) | 5 (100) | 5 (100) | 5 (100) | 5 (100) | 5 (100) | 5 (100) | inhibition at 750 g/ha (paddy rice [1]; 75 g/10 are, 1-leaf stage, read-out: Inhibition (%) by treatment at 1-leaf stage, paddy rice): 0%; inhibition at 750 g/ha (paddy rice [1]; 75 g/10 are, 5-leaf stage, read-out: Inhibition (%) by treatment at 5-leaf stage, paddy rice): 0%; inhibition at 1500 g/ha (paddy rice [1]; 150 g/10 are, 1-leaf stage, read-out: Inhibition (%) by treatment at 1-leaf stage, paddy rice): 0%; inhibition at 1500 g/ha (paddy rice [1]; 150 g/10 are, 5-leaf stage, read-out: Inhibition (%) by treatment at 5-leaf stage, paddy rice): 0%; inhibition at 3000 g/ha (paddy rice [1]; 300 g/10 are, 1-leaf stage, read-out: Inhibition (%) by treatment at 1-leaf stage, paddy rice): 0%; inhibition at 3000 g/ha (paddy rice [1]; 300 g/10 are, 5-leaf stage, read-out: Inhibition (%) by treatment at 5-leaf stage, paddy rice): 0%; inhibition at 6000 g/ha (paddy rice [1]; 600 g/10 are, 1-leaf stage, read-out: Inhibition (%) by treatment at 1-leaf stage, paddy rice): 0%; inhibition at 6000 g/ha (paddy rice [1]; 600 g/10 are, 5-leaf stage, read-out: Inhibition (%) by treatment at 5-leaf stage, paddy rice): 0%; inhibition at 9000 g/ha (paddy rice [1]; 900 g/10 are, 1-leaf stage, read-out: Inhibition (%) by treatment at 1-leaf stage, paddy rice): 3%; inhibition at 9000 g/ha (paddy rice [1]; 900 g/10 are, 5-leaf stage, read-out: Inhibition (%) by treatment at 5-leaf stage, paddy rice): 0%; selectivity to paddy rice (paddy rice [1]; trans-form, cis-form and mixtures compared): equivalent; Weed kill degree, Umbrella plant (Umbrella plant; [17]): 5 (100); LD50 (Acute oral toxicity): > 2000 mg/kg
